Test results published in US5610185A, “Method for the treatment of hyperproliferative epithelial skin diseases by topical application of hydroxylated aromatic protein cross-linking compounds” (The United States of America as represented by the …, priority 1995, dated 1997).
“Also recorded” adds a separate entry of the source.

Experiments:
Assay type in all cases: cell-based
[1] = test system: SP-1 benign tumor mouse keratinocytes; assay: Cornified envelope (cross-linked protein) assay, SP-1 cells
From the text: FIG. 1. MC Increases Cross-linked Protein in Epidermal Cell Lines. Black squares represent HPV 18 human epithelial keratinocytes; black circles represent SV 40 infected human keratinocytes; black triangles represent (SQCC-Y1) cells; white triangles represent (SP-1) benign tumor mouse keratinocytes; white squares represent (308 cells) benign mouse keratinocytes; and white circles represent (I-7) cells mouse squamous cell carcinoma.
FIGS. 2A and 2B, 2C and 2D show color phase contrast photographs. SP-1 cells were treated with vehicle (A and C) or 250 μM MC (B and D) for 48 hours. In A and B phase contrast photomicrographs were taken.
Primary mouse keratinocytes were isolated from BALB/c newborn mouse skin. […]
Cells were incubated with MC for 48 hours, then cross-linked protein was isolated and measured as described in Example 1.
The assay measures insoluble cross-linked protein envelopes as described (Hough-Monroe et al. Analytical biochem., 199, 25-28, 1991), with modifications as follows. […] Absorbance of eluate was measured on a Titertek plate reader at 600 nm.

[2] = test system: primary mouse keratinocytes; assay: Cornified envelope (cross-linked protein) assay, primary mouse keratinocytes
Method: (§1) FIGS. 3A and 3B. A: Time course for cornification of primary mouse keratinocytes in response to MC. Boxes represent […] Ca^2+, triangles represent 100 μM MC, 1.4 mM Ca^2+, and solid circles represent 1 mM MC, 1.4 mM Ca^2+. […] Cells were incubated in medium with 1.4 mM Ca^2+ and MC for 4 hours, then were incubated with MTT (0.5 mg/ml in medium) for a further 4 hours before determination of formazan production.
Primary mouse keratinocytes were isolated from BALB/c newborn mouse skin. Primary keratinocytes, the benign neoplastic keratinocyte cell lines 308 and SP-1 (Strickland et al, Cancer Res., 48, 165-169, 1988) and the mouse squamous cell carcinoma line 1-7 (Greenhalgh et al., Proc. Natl. Acad. Sci., 87, 643-647, 1990) were grown in Eagle's minimal essential medium with 8% fetal calf serum (FCS) (chelexed) and penicillin 20 iu/ml, streptomycin 20 ug/ml (P/S). Unless otherwise indicated, the Ca^2+ concentration in medium was adjusted to 0.05 mM (Hennings et al., Cells, 19, 245-254, 1980). A431 human epidermoid carcinoma cells were obtained from ATCC, Rockville, Md., and were routinely passaged in DMEM with 10% FCS, P/S, glutamine (2 mM) and pyruvate (1 mM). SQCC-Y1 human squamous carcinoma cells and non-tumorigenic HPV 18 and SV 40 infected human keratinocytes were kindly donated by Dr. James Rheinwald of Harvard University, Boston, Mass. and Dr. Richard Schlegel of Georgetown University, Washington D.C. respectively. Human cells were cultured in DMEM/Ham's F12 1:1, 10% FCS, P/S and epidermal growth factor 10 ng/ml.
Primary mouse keratinocytes were incubated with MC for 0, 0.5, 1, 4 and 48 hours and were processed as follows.
The assay measures insoluble cross-linked protein envelopes as described (Hough-Monroe et al. Analytical biochem., 199, 25-28, 1991), with modifications as follows. Cornified envelopes were prepared by scraping monolayers into 2% sodium dodecylsulphate (SDS), 20 mM dithiothreitol (DTT) in phosphate buffered saline (PBS). Unattached cells were pelleted from medium and were resuspended in SDS/DTT and pooled with attached cells. Samples were boiled for 10 mins. Cornified envelope samples were examined under the microscope using phase contrast optics or were applied to an RC60 membrane (Schleicher and Schuell, Keene, N.H.) on a 96-well dot-blot apparatus attached to a vacuum. Samples were washed three times with SDS/DTT and the resultant protein spots on RC60 membrane were fixed and stained as described. Sports were excised and eluted with 1% NH3 OH concentrated solution, 66% methanol (200 ul) overnight. Absorbance of eluate was measured on a Titertek plate reader at 600 nm.
Cells were seeded at low density and were treated with MC for 3 days. Cells were then counted and increase in cell number was compared to untreated controls, or cells were processed for cross-linked protein.
Inhibitors were added 30 mins before MC or stsp (FIG. 6). Cross-linked protein was measured by the cornified envelope assay, described in Example 2.

transglutaminase = assay: Transglutaminase activity in primary mouse keratinocytes
Method: FIG. 7. […] Black columns represent untreated cells in 1.4 mM Ca^2+ medium; and hatched columns represent cells treated with 1 mM MC. Cytosol is represented by "C" and membrane fractions are represented by "M". Results are ±SD (n=2) and were repeated in a similar experiment.
One embodiment of the present invention uses an erbstatin analog, methyl 2,5-dihydroxycinnamate, which forms cross-linked protein envelopes in normal and neoplastic epithelial cells by a mechanism independent of tyrosine kinase inhibition. Methyl 2,5-dihydroxycinnamate (MC) is a tyrosine kinase inhibitor. To assess its ability to induce epithelial cell differentiation, crosslinked protein envelopes were measured after a 48 h incubation with agent. […] To confirm differentiation, MC-treated mouse primary keratinocytes were tested for transglutaminase (TGase) activity, inhibition of protein cross-linking by the TGase inhibitor LTB-2 and HPB-2 and incorporation of the fluorescent TGase substrate dansylcadaverine into envelopes. […] This effect, in concert with growth inhibitory properties, may be useful clinically in the topical treatment of warts or superficial neoplasias of the skin.
Mouse primary keratinocytes were incubated in medium with 1.4 mM Ca^2+ for the indicated times. MC-induced cross-linking commences within 4 hours (see FIG. 3). […]

[3] = test system: primary mouse keratinocytes; assay: MTT cytotoxicity assay; details: within 4 hours, medium with 1.4 mM Ca2+
Method: as §1
MTT is a dye which is reduced by mitochondrial dehydrogenase enzymes to a blue formazan product. Ability of cells to reduce MTT can be used to measure cell viability (Mosmann T., J. Immunol. Methods, 65, 55-63, 1983). Cells were incubated in 96 well plates with or without MC for the indicated time, then were incubated for a further 4 hours with 0.5 mg/ml MTT. Medium was removed and 88.9% DMSO, 11.11% glycine buffer (100 mM glycine, 100 mM NaCL pH 10.5) was added to each well. Plates were shaken for 20 minutes to allow formazan dissolution, then absorbance was measured on a plate reader at 570 nm.

With `COC(=O)C=Cc1cc(O)ccc1O` [MC, methyl 2,5-dihydroxycinnamate] the “formation of cross-linked cornified envelopes (phase contrast)” value ([1]; SP-1, 250 μM, 48 hours) was “formation of cross-linked cornified envelopes”, the “cross-linked protein (envelope production)” value ([1]; SP-1, 48 h, 0.1-1 mM) was “induced crosslinked envelope production; also recorded: increased cross-linked protein in a dose-dependent manner” and the “cornification after 48 hours” value ([2]; 100 μM, 48 hours) was “effective”. The “cornification after 48 hours” value ([2]; 1 mM, 48 hours) was “effective”, the “time within which cornification / cross-linking occurs or commences” value ([2]; 1 mM, primary mouse keratinocytes) was no more than 4 h and the “cross-linked protein at 4° C. and 37° C.” value ([2]; 4° C. and 37° C., 48 hours) was “took place at 4 °C and 37 °C; also recorded: Induces Cross-linked protein; also recorded: able to induce cross-linked protein effectively at 4° or 37 °C”. The minimal effective concentration ([2]; Keratinocyte, 72 h, primary mouse keratinocytes, 3 days, read-out: concentration required to produce protein cross-linking) was greater than 50 µM, the “effect of transglutaminase inhibitors on cross-linking activity” value ([2]; LTB 2 and HPB 2 at 100 μM, MC 75 or 1000 μM or staurosporine 10 nM, 48 hours) was “not affected by transglutaminase inhibitors; also recorded: not inhibited by transglutaminase (TGase) inhibitors; also recorded: do not Prevent Protein Cross-linking” and the “cross-linked protein (envelope production)” value ([2]; primary mouse keratinocytes, 48 h, 0.1-1 mM) was “induced crosslinked envelope production; also recorded: increased cross-linked protein in a dose-dependent manner”. For the same compound, the transglutaminase activity (transglutaminase; 1 mM MC, 4 hrs, cytosol and membrane fractions) was “not stimulated; also recorded: does not Increase Transglutaminase Activity”, the “involvement of transglutaminase in the mode of action” value (transglutaminase; TGase activity, TGase inhibitors LTB-2 and HPB-2, dansylcadaverine incorporation) was “refuted the involvement of TGase” and the “MTT reduction / cell death” value [3] was “cell death; also recorded: Inhibits MTT Reduction”.
